Measured values reported in patent US20170283458A1, “COLLAGEN-BINDING SYNTHETIC PEPTIDOGLYCANS FOR WOUND HEALING” (Symic Biomedical, Inc., priority 2009, published 2017).
Ends that are not written are not given here.

Columns and labels:
[1] = tested on: Human dermal fibroblasts; assay: TGF-β1 production by human dermal fibroblasts (ELISA); format: cell-based; details: 1.4 μM treatment, 48 hours
Protocol: Human dermal fibroblasts (Cascade Biologics) were seeded onto 96-well tissue culture polystyrene plates at a seeding density of 1.83×10^3 cells/well. Cells adhered overnight and cell medium was aspirated. 100 μL/well of cell medium containing a final concentration of 1.4 μM treatment delivered from a concentrated solution of treatment in 1×PBS was added to the cells. After 48 hours, cell medium was removed and frozen at −80 C until further testing. TGF-β1 was measured by ELISA using a kit and protocol from R&D Systems.

[2] = tested on: HCA SMCs; assay: Measurement of elastin (Fastin assay) in cell-seeded collagen gels; format: cell-based, human; details: gels cultured for 10 days
Protocol: Collagen gels seeded with HCA SMCs were prepared as described in EXAMPLE 30. Differentiation medium was changed every three days and gels were cultured for 10 days. Collagen gels containing no cells were used as a control. Gels were rinsed in 1×PBS overnight to remove serum protein, and gels were tested for elastin content using the Fastin elastin assay per manufacturers protocol (Biocolor, County […].). Briefly, gels were solubilized in 0.25 M oxalic acid by incubating at 100° C. for 1 hr. Elastin was precipitated and samples were then centrifuged at 11,000×g for 10 min. The solubilized collagen supernatant was removed and the elastin pellet was stained by Fastin Dye Reagent for 90 min at room temperature. Samples were centrifuged at 11,000×g for 10 min and unbound dye in the supernatant was removed. Dye from the elastin pellets was released by the Fastin Dye Dissociation Reagent, and 100 μL samples were transferred to a 96-well plate (Costar). Absorbance was measured at 513 nm, and elastin content was calculated from an α-elastin standard curve.

[3] = biological target: T1, collagen gels (Bos taurus, UniProt P02453+P02465); assay: Cryo-SEM measurement of fibril density; format: biochemical; details: 10:1 molar ratio, cryo-SEM 10,000×
T1 construct: purchased Inamed, Freemont, Calif; Nutragen
T1 sequence (P02453 162-1217 limits assumed): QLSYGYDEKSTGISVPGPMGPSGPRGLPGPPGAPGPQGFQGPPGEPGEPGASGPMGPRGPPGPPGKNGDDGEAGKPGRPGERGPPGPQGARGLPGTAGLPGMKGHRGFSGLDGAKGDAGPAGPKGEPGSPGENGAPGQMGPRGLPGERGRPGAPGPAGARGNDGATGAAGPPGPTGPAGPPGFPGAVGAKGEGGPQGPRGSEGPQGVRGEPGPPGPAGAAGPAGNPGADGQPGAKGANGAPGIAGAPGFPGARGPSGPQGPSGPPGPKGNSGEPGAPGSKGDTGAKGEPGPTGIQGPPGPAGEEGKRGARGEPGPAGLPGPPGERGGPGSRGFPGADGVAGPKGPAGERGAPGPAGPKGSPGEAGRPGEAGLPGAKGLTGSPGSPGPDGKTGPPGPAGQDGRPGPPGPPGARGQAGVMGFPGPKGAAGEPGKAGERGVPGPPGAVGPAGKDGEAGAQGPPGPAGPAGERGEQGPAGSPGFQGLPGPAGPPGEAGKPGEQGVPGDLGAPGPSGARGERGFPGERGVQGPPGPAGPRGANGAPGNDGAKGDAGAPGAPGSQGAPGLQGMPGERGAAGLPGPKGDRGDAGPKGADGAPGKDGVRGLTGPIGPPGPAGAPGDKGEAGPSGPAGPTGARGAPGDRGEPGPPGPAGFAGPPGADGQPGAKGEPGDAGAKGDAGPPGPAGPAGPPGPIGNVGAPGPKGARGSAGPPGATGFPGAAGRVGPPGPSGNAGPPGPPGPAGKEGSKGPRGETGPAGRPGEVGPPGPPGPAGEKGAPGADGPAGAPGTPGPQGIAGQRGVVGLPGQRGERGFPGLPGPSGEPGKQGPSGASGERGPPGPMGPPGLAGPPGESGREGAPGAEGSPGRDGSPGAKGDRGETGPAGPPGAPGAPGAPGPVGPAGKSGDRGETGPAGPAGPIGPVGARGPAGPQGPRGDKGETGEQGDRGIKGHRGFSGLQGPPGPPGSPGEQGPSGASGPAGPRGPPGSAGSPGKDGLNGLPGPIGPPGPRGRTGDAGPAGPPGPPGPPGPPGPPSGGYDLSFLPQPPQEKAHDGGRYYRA
T1 sequence (P02465 80-1117 limits assumed): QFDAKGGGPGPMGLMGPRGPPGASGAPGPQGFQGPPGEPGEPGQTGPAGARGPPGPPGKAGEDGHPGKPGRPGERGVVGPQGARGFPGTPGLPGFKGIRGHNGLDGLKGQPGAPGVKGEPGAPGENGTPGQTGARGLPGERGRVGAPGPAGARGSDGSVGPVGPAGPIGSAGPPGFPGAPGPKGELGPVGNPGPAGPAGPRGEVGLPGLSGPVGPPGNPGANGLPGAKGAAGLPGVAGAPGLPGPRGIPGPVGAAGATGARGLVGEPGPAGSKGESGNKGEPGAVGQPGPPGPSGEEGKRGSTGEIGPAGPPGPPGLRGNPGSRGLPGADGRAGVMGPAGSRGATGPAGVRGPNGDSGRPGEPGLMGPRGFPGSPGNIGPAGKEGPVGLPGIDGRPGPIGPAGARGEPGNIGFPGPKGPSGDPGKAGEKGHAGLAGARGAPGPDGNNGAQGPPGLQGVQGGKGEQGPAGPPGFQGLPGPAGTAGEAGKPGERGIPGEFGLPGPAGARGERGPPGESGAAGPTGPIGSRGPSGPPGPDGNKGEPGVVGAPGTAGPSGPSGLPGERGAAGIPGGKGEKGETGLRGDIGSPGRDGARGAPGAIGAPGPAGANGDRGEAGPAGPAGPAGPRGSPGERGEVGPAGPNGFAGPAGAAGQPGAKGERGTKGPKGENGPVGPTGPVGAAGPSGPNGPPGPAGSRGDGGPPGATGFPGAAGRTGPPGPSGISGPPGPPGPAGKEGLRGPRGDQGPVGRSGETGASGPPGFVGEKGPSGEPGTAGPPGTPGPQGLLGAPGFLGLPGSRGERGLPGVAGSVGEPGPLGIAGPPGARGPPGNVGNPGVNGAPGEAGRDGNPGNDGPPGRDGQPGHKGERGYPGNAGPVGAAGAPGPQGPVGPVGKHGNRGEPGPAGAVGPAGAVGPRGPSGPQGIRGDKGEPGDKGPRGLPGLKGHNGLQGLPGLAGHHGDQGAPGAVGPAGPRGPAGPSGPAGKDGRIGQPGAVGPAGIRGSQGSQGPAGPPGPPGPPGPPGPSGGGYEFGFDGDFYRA
Protocol: Collagen gels were formed in the presence of each additive at a 10:1 molar ratio, as described in EXAMPLE 16, directly on the SEM stage, processed, and imaged as described. Images at 10,000× were analyzed for fibril density calculations. Images were converted to 8-bit black and white, and threshold values for each image were determined using ImageJ software (NIH). The threshold was defined as the value where all visible fibrils are white, and all void space is black. The ratio of white to black area was calculated using MatLab software. All measurements were taken in triplicate and thresholds were determined by an observer blinded to the treatment.

[4] = tested on: Long-Evans rats; assay: Rat incisional model, tensile testing of scar (scar strength); format: in vivo
Protocol: (§1) Using sterile techniques, longitudinal wounds were incised on shaved dorsal skin of the rats. A 4 cm incision was cut through the panniculus down to the skeletal musculature, and a 250 μL single dose of either 10 mg/mL hyaluronic acid (HA) or HA+DS-SILY was applied to the open wound by a syringe. DS-SILY was tested at 0.5, 1, and 2.5 mg/mL mixed with HA. The incision was then sutured closed and animals were returned to individual cages and monitored for complications. Negative control rats received no treatment and were treated identically. A pilot study was performed (n=3) at time points 3, 7, 10, 14, and 21 days, followed by a higher powered study (n=9) for 21 and 28 day time points.
At a predetermined time after surgery (3-28 days) the animals were euthanized. Photographs of the incision were obtained, and the dermal wound including a 1 inch area around the wound edge was excised and cut into 4mm wide strips using a custom cutting device with fixed blades. Relevant tissues were harvested for tensile strength testing and histologic study.
Based on these findings, a full powered (n=9 rats/treatment) was performed using the later time points 21-day and 28-day, and comparing the same low dose, but modifying the high dose to 0.25 mg DS-SILY. DS-SILY was delivered with HA in each study and the negative control received no treatment.
Following necropsy, 4 mm skin strips (n=4 per animal) were placed in 1×PBS and kept at 4° C. for up to 6 hours. The wound breaking strength was measured at time points from 3 to 21 days. Skin samples were loaded onto a mechanical testing system (Test Resources, mode:100P/Q) such that the incision was orthogonal to the grips. Samples were loaded under tension with a rate of 5 mm/min to failure. […] No differences were observed between the low and high peptidoglycan concentrations.

[5] = tested on: Long-Evans rats; assay: Rat incisional model, trichrome histological scoring of scar tissue (Beausang); format: in vivo; details: 21-days post-injury; 0.125 mg and 0.625 mg; vs untreated wounds
Protocol: as §1, with “points. […]” for “points.”
H&E stained samples were examined for inflammation by a board certified pathologies blinded to the treatments following a scale adapted from Simhon et al. Trichrome stained samples were evaluated for scar tissue formation by an observer blinded to the treatments using a method established by Beausang et al. in which collagen orientation, density, and maturation are observed and compared to collagen of healthy tissue. A total of 12 tissue samples were analyzed for each study at each time point. Statistics were analyzed by ANOVA using Design Expert software (StatEase, Minneapolis, Minn.). […]

DS-SILY: collagen-binding peptidoglycan in which a single SILY peptide was conjugated to dermatan sulfate via PDPH (RRANAALKAGELYKSILYGC; also: single peptide conjugated to dermatan sulfate via PDPH, site not given here)
TGF-β1 in cell medium [1]: significantly decreased TGF-β1
elastin production [2]: significantly increased elastin production over all samples
fibril density (ratio of fibril containing area to void space) [3]: significantly greater fibril density
wound breaking strength ([4]; 21 days post-injury, vs untreated or HA treated wounds): significant increase in wound breaking strength when compared to untreated or HA treated wounds
scar strength ([4]; full powered study, 0.125 mg and 0.25 mg with HA, 21-days): increased scar strength over no treatment
scar strength ([4]; full powered study, 0.125 mg and 0.25 mg with HA, 28-days): significantly higher compared to the HA control, but was not different from no treatment
scar strength ([4]; pilot study, low (0.125 mg) and high (0.625 mg) dose delivered with HA, 21-days): significantly increases scar strength
histological score for collagen maturity and organization (scar tissue) [5]: significantly lower scores
